Source: US20080261984A1, “Use of S,S-Reboxetine in the Treatment of Pain” (Pfizer Inc., priority 2004, published 2008)

Columns and labels:
[1] = test system: anticholinergic binding; conditions: different animal models; cited from earlier work
[2] = test system: monoamine oxidase (MAO); conditions: cited from earlier work
[3] = in vivo; cited from earlier work
[4] = treatment of pain in patients who do not respond to alpha-2-delta ligands such as gabapentin (PHN study); conditions: human, in vivo
Procedure: The following study is carried out to assess the efficacy of (S,S)-reboxetine in the treatment of patients with post-herpetic neuralgia (PHN) who fail to respond to gabapentin (GBP) treatment.
Study Population Male or female patients aged 18 years or older, with pain present more than 3 months after healing of the Herpes Zoster skin rash and who are also GBP treatment failures. No upper limit on the duration of PHN is imposed. GBP failures are defined as either: […]
Those patients who show no or minimal improvement on the Patient Global Impression of Change (PGIC) after treatment with GBP (1800 mg/day) administered for a period of […]
Those who are unable to tolerate doses of GBP less than or equal to 1800 mg/day.
Study Design Randomized, double-blind, placebo-controlled, 2-treatment (placebo and active), age-stratified study in patients aged 18 years or older, who suffer from PHN. The study is comprised of 3 phases: (i) 7-weeks screening including 4-weeks GBP treatment, (ii) 5-weeks randomized treatment, and (iii) 1-week follow-up period.
All patients who meet entry criteria initially enter a 1-week run-in period during which a daily pain diary will be maintained. Thereafter, if the severity of pain meets relevant criteria for inclusion in the study, patients enter a 4-week period during which they will receive GBP treatment. […]

[5] = molecular target: dopamine reuptake (Homo sapiens, UniProt Q01959); conditions: cited from earlier work
Sequence of dopamine reuptake (Q01959 whole entry): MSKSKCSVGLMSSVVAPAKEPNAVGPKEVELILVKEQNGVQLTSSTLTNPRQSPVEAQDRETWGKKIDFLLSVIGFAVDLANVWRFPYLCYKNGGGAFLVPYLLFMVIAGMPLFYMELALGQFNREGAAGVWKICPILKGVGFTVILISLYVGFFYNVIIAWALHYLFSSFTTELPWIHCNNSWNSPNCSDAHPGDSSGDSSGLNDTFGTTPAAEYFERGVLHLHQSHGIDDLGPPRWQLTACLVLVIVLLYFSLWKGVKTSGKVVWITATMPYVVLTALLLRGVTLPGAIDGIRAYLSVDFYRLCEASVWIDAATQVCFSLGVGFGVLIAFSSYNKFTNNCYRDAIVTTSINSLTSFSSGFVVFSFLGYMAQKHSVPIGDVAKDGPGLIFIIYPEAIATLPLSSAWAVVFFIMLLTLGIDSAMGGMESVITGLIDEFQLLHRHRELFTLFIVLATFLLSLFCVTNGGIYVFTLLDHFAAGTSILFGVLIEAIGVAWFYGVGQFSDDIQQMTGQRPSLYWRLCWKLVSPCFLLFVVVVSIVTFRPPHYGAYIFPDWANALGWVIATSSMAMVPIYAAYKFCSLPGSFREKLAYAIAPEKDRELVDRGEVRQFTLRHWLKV

[6] = in vivo; cited from earlier work; remark: listed apart in the source
[7] = patients receiving gabapentin; cited from earlier work
[8] = molecular target: norepinephrine reuptake (Homo sapiens, UniProt P23975); conditions: cited from earlier work
Sequence of norepinephrine reuptake (P23975 whole entry): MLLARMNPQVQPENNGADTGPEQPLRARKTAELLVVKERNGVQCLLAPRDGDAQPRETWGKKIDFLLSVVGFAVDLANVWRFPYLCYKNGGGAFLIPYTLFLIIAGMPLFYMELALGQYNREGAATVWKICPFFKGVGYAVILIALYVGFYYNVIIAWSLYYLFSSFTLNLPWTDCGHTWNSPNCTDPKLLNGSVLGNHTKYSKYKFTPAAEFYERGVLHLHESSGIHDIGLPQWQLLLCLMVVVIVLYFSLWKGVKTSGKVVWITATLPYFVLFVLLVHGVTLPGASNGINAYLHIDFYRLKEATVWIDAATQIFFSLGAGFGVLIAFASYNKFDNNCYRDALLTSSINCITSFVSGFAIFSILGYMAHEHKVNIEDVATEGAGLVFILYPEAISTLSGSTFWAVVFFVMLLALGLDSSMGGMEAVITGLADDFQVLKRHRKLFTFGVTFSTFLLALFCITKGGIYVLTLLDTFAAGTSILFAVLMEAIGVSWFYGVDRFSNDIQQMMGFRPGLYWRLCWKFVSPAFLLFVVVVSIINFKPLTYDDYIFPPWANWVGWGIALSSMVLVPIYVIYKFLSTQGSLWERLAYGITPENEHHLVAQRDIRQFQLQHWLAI

CCOc1ccccc1OC(c1ccccc1)C1CNCCO1 (racemic) [reboxetine, (RR, SS)-2-[α-(2-ethoxyphenoxy)benzyl]morpholine]
anticholinergic binding activity [1]: no anticholinergic binding activity | monoamine oxidase (MAO) inhibitory activity [2]: substantially devoid | effect in the 8-OH-DPAT hypothermia test [3]: ineffective

CCOc1ccccc1O[C@@H](c1ccccc1)[C@@H]1CNCCO1 [(S,S)-reboxetine]
efficacy in treating pain in patients who do not respond to alpha-2-delta ligands [4]: efficacious | dopamine reuptake inhibitory activity [5]: no

NCC1(CC(=O)O)CCCCC1 [gabapentin, 1-(aminomethyl)-cyclohexylacetic acid]
efficacy in the treatment of painful diabetic neuropathy [6]: efficacious | patients noting at least a moderate improvement (score of 1 or 2) on the Patient Global Impression of Change [7]: Approximately 60%

COc1ccc(C(CN(C)C)C2(O)CCCCC2)cc1 (stereo not drawn) [venlafaxine]
norepinephrine reuptake inhibitory activity [8]: potent inhibitor | dopamine reuptake inhibitory activity [5]: weak inhibitor
